Assay results published in a melting point compilation (Tetko et al.; mined from patent text by program, amines drawn as free bases though some values may be those of a salt).

`CCCN(CCCCc1c[nH]c2ccc(F)cc12)C1COc2c(ccc3ncccc23)C1` (configuration not stated) gave a melting point of 164 °C.
For `COc1ccc2c(c1)CCc1ccc(-c3ccccc3)cc1C21N=C(N)N(C)C1=O` (configuration not stated), the melting point was 167 to 171 °C.
Work on `Cc1cc(=O)oc2nn(Cc3cccc(Cl)c3)c(C)c12` yielded a melting point of 148 to 149 °C.
Work on `CCc1nn(C2CCCC2)c2cc(-c3ccccc3)ccc12` yielded a melting point of 72 to 74 °C.
`COc1cccc(-c2ncc3n2C=CN(C)C3)c1` gave a melting point of 211 to 214 °C.
`CC(=O)OCc1nc(Cl)cc(N2CCCC2)n1` showed a melting point of 101 to 103 °C.
Molecule `CCCN(C)S(=O)(=O)c1cccc(-c2cc(-c3nc(-c4ccc(C(F)(F)F)cc4)cc(C(F)(F)F)n3)ccn2)c1` has a melting point of 144 °C.
In the case of `COc1cccc(NN=C(Cl)C(C)=O)c1`, the melting point is reported as 117 to 119 °C.
With `COc1ccc2ccccc2c1CCNC(C)=O` the melting point was 139 °C.
`Cn1cc(CO)c(=O)c2ccc(C(C)(C)C)cc21` gave a melting point of 146 to 149 °C.
For `CNC(=O)c1ccc(Cl)nc1`, the melting point was 150 to 154 °C.
`O=c1c(-c2ccccc2)coc2cc(O)c(Cl)c(Cl)c12` gave a melting point greater than 290 °C.
In the case of `CCOCc1cc2cc(Br)ccc2oc1=Nc1ccc(OC)cc1`, the melting point is reported as 134 to 135 °C.
`O=C(O)c1ccc2ccc(S(=O)(=O)N(Cc3ccccc3)Cc3ccccc3)cc2c1` showed a melting point of 189 to 190 °C.
In the case of `NC(=O)N(O)CC#CCOc1cccc(Oc2ccccc2)c1`, the melting point is reported as 105 to 107 °C.
For `CCCCn1c(CCC)ccc1Cc1cccc(NC(N)=O)c1`, the melting point was 85 to 89 °C.
Work on `NC(=O)c1ccc(-c2ccc3[nH]c(=O)ccc3c2)cc1` yielded a melting point greater than 320 °C.
`CCOC(=NC(=O)c1ccc(Cl)cc1Cl)N1Cc2ccccc2-c2ccccc2C1` showed a melting point of 158 to 159 °C.
For `CS(=O)(=O)N(Cc1cccnc1)c1cccc(C(F)(F)F)c1`, the melting point was 106 to 110 °C.
With `NC1CC2CCCC(C1)N2Cc1ccccc1` (configuration not stated) the melting point was 134 °C.
In the case of `CS(=O)(=O)c1ccc(C(=O)c2cnoc2C2CC2)c2c1OC(F)(F)O2`, the melting point is reported as 164 to 165 °C.
Molecule `CNC(=O)c1cc(N)cc(C(F)(F)F)c1` has a melting point of 113 to 115 °C.
`C#Cc1cc2c(=O)nc(CCCC)[nH]c2cc1F` showed a melting point of 218 °C.
For `Nc1ncc(C#Cc2ccc(Cl)cc2)c(OCCOCCO)n1`, the melting point was 142 to 143 °C.
Work on `CC1(C)OC(=O)C(c2cccc3nnsc23)C(=O)O1` yielded a melting point of 170 to 172 °C.
Work on `COc1ccc(-c2cc(-c3cccc(Br)n3)nc(-c3cccc(Br)n3)c2)cc1` yielded a melting point of 205 °C.
`CCCCCCCCc1c(C)[nH]c(C)c(I)c1=O` gave a melting point of 224 to 226 °C.
In the case of `CN1CNC(=S)N(c2ccc(N(C)C)cc2)C1`, the melting point is reported as 173 to 175 °C.
`N#Cc1ccc(N2C=CC(N)=C([N+](=O)[O-])C2)cc1` gave a melting point of 210 to 211 °C.
In the case of `Cn1ncc2c1CSc1cn[nH]c1-2`, the melting point is reported as 224 to 226 °C.
Work on `Nc1cccc(-c2ccc(CCN3CCN(C(=O)Cc4ccccc4)CC3)cc2)n1` yielded a melting point of 135 to 137 °C.
Work on `O=C(c1cccc([N+](=O)[O-])c1)N1CCOCC1` yielded a melting point of 83.5 to 85 °C.
With `COCCOCC(=O)Nc1cccc2c1C1(COc3cc4c(cc31)OCCO4)C(=O)N2C` (configuration not stated) the melting point was 122 to 123 °C.
Molecule `CCCOc1c(OC)cc(C=O)cc1SC` has a melting point of 64 to 66 °C.
Work on `COc1nc(C)c(C)nc1NC(=O)N1CCN(c2cccc(Br)c2)CC1` yielded a melting point of 158 to 160 °C.
With `CNC(=O)c1cccc(CNc2ccccc2C(=O)Nc2cccc(C(F)(F)F)c2)c1` the melting point was 166 to 167 °C.
In the case of `Cc1ccc(C(=O)NC(NC(=S)Nc2ccc(F)cc2F)C(F)(F)F)cc1` (configuration not stated), the melting point is reported as 202 to 204 °C.
Work on `CCOC(=O)c1cc2c(OCc3ccccc3)c(Cc3ccccc3)ccc2[nH]1` yielded a melting point of 129 to 131 °C.
`CCN(CC)C(=O)ON=C(C(=O)N(C)C)C(C)=NOC` showed a melting point of 59 to 61 °C.
`O=[N+]([O-])c1cccc(-c2ccncc2)c1` showed a melting point of 109 to 110 °C.
`CN1CCN(c2cccc3c(S(=O)(=O)c4ccccc4)c[nH]c23)CC1` gave a melting point of 160 to 162 °C.
Molecule `CCOC(=O)c1cccc(NC(=O)c2ccc(OC)c(NCc3cccs3)c2)c1` has a melting point of 153 to 155 °C.
With `COc1ccc(N(c2ccccc2)c2ccc(-c3ccc(-c4ccc(N(c5ccccc5)c5ccc(OC)cc5C)cc4)cc3)cc2)c(C)c1` the melting point was 181 to 183 °C.
`O=c1[nH]c2ccccc2n1C1CCN(CC(O)COc2ccc(F)cc2)CC1` (configuration not stated) gave a melting point of 175 to 176 °C.
For `CC1(C)CC(c2ccccc2)c2ccc(OCC3CO3)cc2O1` (configuration not stated), the melting point was 82 to 85 °C.
In the case of `Cc1ccc2c(c1)Sc1ccc(Cl)cc1CC2N1CCN(C)CC1` (configuration not stated), the melting point is reported as 136 to 138 °C.
For `CC(=O)c1ccc(NS(C)(=O)=O)c(Oc2ccccc2S(C)(=O)=O)c1`, the melting point was 189 to 191 °C.
For `O=C(O)[C@@H]1C[C@@H](O)CN1S(=O)(=O)c1ccc2ccccc2c1`, the melting point was 140 °C.
In the case of `Fc1cccc(F)c1-c1ncc(-c2ccc(Br)cc2)cn1`, the melting point is reported as 193 to 194 °C.
In the case of `CCCCCCCCc1ccc(-c2cnc(-c3ccc(O)cc3F)nc2)cc1`, the melting point is reported as 167 °C.
Molecule `CC(C)(N)c1ccc(-c2nc(Nc3ccc(CCN4CCCCC4)cc3)ncc2C#N)cc1` has a melting point of 114 °C.
With `O=C(O)CON=C(c1ccc(Cl)cc1)c1ccc(Cl)cc1` the melting point was 147 to 148 °C.
